# Experimental data published in patent US11096910B2, “Metabolically robust analogs of CYP-eicosanoids for the treatment of cardiac disease” (OMEICOS THERAPEUTICS GMBH, priority 2015, dated 2021).
# Read-outs that look alike come from different tables or passages of the source.
# Experiments:
# Aqueous solubility = assay type: physicochemical; conditions: for solubility at 24 h: deionised water, 37 °C, pH 5.9, water, thermodynamic from solid, pH 5.90, 24 hours agitation
# Method: Known amounts of the compounds were suspended by agitation for 24 hours. The filtrates were isolated and content of the appropriate compounds was determined by HPLC analysis.
# [1] = Plasma pharmacokinetics after single intravenous and oral administration; set-up: species or system male C57BL/6 mice; conditions: male, C57BL/6, mouse, in vivo
# Method: To gain insight into pharmacological properties of synthetic 17,18-EEQ agonists pharmacokinetic studies were performed with two selected compounds (Comp-02 and Comp-06). These compounds were pharmacologically evaluated in plasma after single intravenous and oral administration. Therefore, male C57BL/6 mice (Janvier Labs (France), n=12 per group) were administered to the test item at a dose of 2 mg/kg (i.v.) and 8 mg/kg (p.o.), respectively. Intravenous application of Comp-02 (sodium salt in isotonic salt solution) and Comp-06 (free acid in DMSO/PEG400 20:80) was performed via the tail vein, and for oral administration via gavage. […] Blood sampling was of 100 μl were obtained at two different time point for each mouse (0.083/2 h, 0.25/4 h, 0.5/8 h and 1/24 h). Biological samples were subjected to an extraction procedure (40 μl Acetonitril+22.4 μl sample, shaking, 10 min centrifugation at 6000×g at room temperature, dilution of 50 μl supernatant 1:1 with water). For analysis 20 μl of sample were injected into the LC-MS, Accela 1250 UHPLC system, Accela Open Autosampler, Q-Exactive mass spectrometer (Thermo Fisher Scientific). Appropriate samples were used as controls: zero sample, calibration standard and QC sample. The pharmacokinetic analysis were performed applying a non-compartment model using the Kinetica 5.0 software (Thermo Scientific, Waltham, USA). All given parameters were obtained by trapezoid area calculation.
# [2] = tested on: isolated mouse hearts of 12-14 week old male C57BL6/n animals; test: Ischemia-reperfusion of isolated Langendorff-perfused mouse hearts (Example 11)
# Method: Study design: To gain insight into the cardioprotective effects of synthetic 17,18-EEQ-agonists, ischemia-reperfusion studies were performed in isolated mouse hearts of 12-14 week old male C57BL6/n animals. Briefly, mice were anesthetized with i.p. injected pentobarbital/heparin, hearts were rapidly removed and perfused in a Langendorff apparatus. Excised hearts were put in ice-cold Krebs-Henseleit buffer and aortas were cannulated. Modified Krebs-Henseleit buffer for retrograde perfusion contained 118 mM NaCl, 3.5 mM KCl, 1.3 mM MgSO4, 2.5 mM CaCl2, 24.7 mM NaHCO3, 1.4 mM KH2PO4 and 11 mM glucose, was aerated with 95% O2-5% CO2 and kept at constant temperature of 37° C. and pH 7.3. Perfusion pressure was adjusted to 80 mmHg and a latex balloon connected to a pressure transducer was inserted in the left ventricle through the left atrium. Hearts were perfused with buffer for a 15 minutes stabilisation period, followed by 10 minutes perfusion with either the agonistic analog Comp-02 (100 nM) or vehicle (0.9% NaCl in water). Afterwards hearts were subjected to 35 minutes global no-flow ischemia followed by 40 minutes of reperfusion. Compound or vehicle perfusion was kept constant during the reperfusion time. To analyse recovery of contractile function the left ventricular developed pressure (LVdP) at different time points during reperfusion was measured and expressed as percentage of pre-ischemic LVdP. Exclusion criteria for the hearts were: (i) a LVdP below 60 mmHg at the end of the stabilisation phase (baseline measurement), (ii) a heart rate below 260 bpm, (iii) coronary flow below 1.5 or over 4 ml/min and finally (iv) severe sustained arrhythmias during the stabilisation phase. The results are presented in FIG. 1 and expressed as mean±SEM percentage of pre-ischemic LVdP. Data were analysed by two-tailed unpaired Student's t test and considered significant if p<0.05*.
# [3] = tested on: mouse neonatal primary cardiomyocyte culture; test: Oxygen-glucose deprivation/reoxygenation injury in primary cardiomyocytes; assay type: cell-based; conditions: for amelioration of loss of cell number: Hoechst 33342 staining
# Method: In vitro ischemic injury was induced in mouse neonatal primary cardiomyocyte culture by oxygen-glucose deprivation for 18 hours and a 24 hours reoxygenation period in a humidified incubator with 5% CO2/95% air. Cardiomyocytes were incubated with the test compounds during 4 hours prior to the oxygen glucose depriviation (OGD) induction. The test compounds were also present during the OGD insult and during the 24 h-reoxygenation period. After the reoxygenation period, cell number was assessed by Hoechst 33342 staining, apoptosis was measured by determining caspase 3/7 activation, and cell membrane integrity or necrosis was measured as LDH release.
# Data were expressed as mean±SD of three separate wells and individual comparisons were made with Student's t-test (SigmaPlot 9.0 program). The results were normalized to the normoxia-treated cells. Statistical significance (*) p<0.05 as compared to normoxia/DMSO-treated cells and (§) hypoxia/DMSO treated cells. Results
smiles,measurement,setting,value
"CNC(=O)C(=O)NCCCC/C=C\CCCCCCCOCC(=O)O [Comp-02, 2-((13-(2-(methylamino)-2-oxoacetamido)tridec-8(Z)-en-1-yl)oxy)acetic acid]",solubility in deionised water relative to Comp-06,Aqueous solubility; 37° C.,~10 ×
same,solubility at 24 h,Aqueous solubility; read-out: Average solubility at 37° C.,68 µg/mL
same,solubility at 24 h,Aqueous solubility; read-out: Highest solubility value at 37° C.,75 µg/mL
same,solubility at 24 h,Aqueous solubility; read-out: Lowest solubility value at 37° C.,59 µg/mL
same,AUC(0-inf),"[1]; iv, 2 mg/kg",524 ng·h/mL
same,bioavailability,"[1]; iv, 2 mg/kg",100%
same,AUC(0-inf),"[1]; po, 8 mg/kg",1820 ng·h/mL
same,"Cmax, maximal observed plasma concentration","[1]; po, 8 mg/kg",903.8 ng/mL
same,Tmax,"[1]; po, 8 mg/kg",18 min
same,bioavailability,"[1]; po, 8 mg/kg",87%
same,Cmax,"[1]; po, 8 mg/kg, Cmax, maximal observed plasma concentration",903 ng/mL
same,"functional recovery, LVdP as percentage of pre-ischemic LVdP","[2]; 100 nM, 10 minutes reperfusion",18%
same,"functional recovery, LVdP as percentage of pre-ischemic LVdP","[2]; 100 nM, 40 minutes reperfusion",59%
same,"post-ischemic recovery of contractility function, in words","[2]; 100 nM, vs control group",significantly improved post-ischemic recovery of contractility function
same,obvious negative side effects,[2]; continuous infusion of 100 nM,did not induce any obvious negative side effects
same,reduction of cellular necrosis (LDH-release),[3]; 30 nM,43%
same,amelioration of loss of cell number,[3]; 30 nM,35%
same,reduction of cellular necrosis (LDH-release),[3]; 10 μM,45%
same,amelioration of loss of cell number,[3]; 10 μM,44%
same,"protection against OGD-induced damage, in words","[3]; 18 h OGD, 24 h reoxygenation",partially protected against OGD-induced damage
same,reduction of OGD-induced apoptosis,"[3]; caspase 3/7 activation, concentration not given",43%
same,reduction of OGD-induced necrosis,[3]; concentration not given,29%
